From US20060003016A1, “Therapeutic method for endolymphatic hydrops associated diseases” (priority 2004, published 2006)
Where two headings read alike, the source gives them in different places.

System: patients with Meniere's disease and endolymphatic hydrops associated diseases
Details: for hearing level / hearing level, average (500-4000 Hz): case 4, right ear
Text: In the present case who could be followed up for more than 24 months after treatment with water intake, the therapeutic effect was judged by using the criteria of AAO-HNS (1995)^14), 15). Proviso that in an examination on changes of the hearing, although the criteria in the four-frequency pure-tone averages (PTA) of AAO-HNS (1995)^14) adopted mean values of the hearing levels consisting of 500 Hz, 1000 Hz, 2000 Hz and 3000 Hz, in our case, the value of 4000 Hz was used in stead of that of 3000 Hz.
In each figure, a horizontal axis indicates frequency (Hz) and a vertical axis indicates hearing level. […] A graph in the upper position indicates better hearing level.

O [water intake, water]
60 dB: hearing level (4000 Hz, Jul. 2003, water intake 1.5 lit./day) | hearing level (8000 Hz, Dec. 2003, water intake 1.5 lit./day) | hearing level after treatment (case 8, right ear, 4000 Hz, Sep. 19, 2003, poorest level 18-24 months after treatment, water intake, before 65 dB)
26.25 dB: hearing level, average (500-4000 Hz) (Aug. 2003, water intake 1.5 lit./day)
40 dB: hearing level (250 Hz, Sep. 2003, water intake 1.5 lit./day) | hearing level (500 Hz, Jun. 2003, water intake 1.5 lit./day from Jun. 20, 2003) | hearing level (500 Hz, Sep. 2003, water intake 1.5 lit./day) | hearing level (2000 Hz, Sep. 2003, water intake 1.5 lit./day) | hearing level (4000 Hz, Sep. 2003, water intake 1.5 lit./day) | hearing level after treatment (case 8, right ear, 125 Hz, Sep. 19, 2003, poorest level 18-24 months after treatment, water intake, before 60 dB) | hearing level after treatment (case 8, right ear, 250 Hz, Sep. 19, 2003, poorest level 18-24 months after treatment, water intake, before 70 dB) | hearing level after treatment (case 8, right ear, 1000 Hz, Sep. 19, 2003, poorest level 18-24 months after treatment, water intake, before 60 dB) | hearing level after treatment (case 8, right ear, 2000 Hz, Sep. 19, 2003, poorest level 18-24 months after treatment, water intake, before 50 dB)
5 dB: hearing level after treatment (case 1, right ear, 250 Hz, Aug. 29, 2003, water intake 2 lit./day, before 45 dB) | hearing level after treatment (case 3, left ear, 1000 Hz, Jun. 7, 2002, poorest level 18-24 months after treatment, water intake, before 15 dB) | hearing level after treatment (case 3, left ear, 2000 Hz, Jun. 7, 2002, poorest level 18-24 months after treatment, water intake, before 10 dB) | hearing level after treatment (case 3, left ear, 4000 Hz, Jun. 7, 2002, poorest level 18-24 months after treatment, water intake, before 45 dB) | hearing level after treatment (case 7, left ear, 125 Hz, Oct. 10, 2003, poorest level 18-24 months after treatment, water intake, before 35 dB) | hearing level after treatment (case 7, left ear, 250 Hz, Oct. 10, 2003, poorest level 18-24 months after treatment, water intake, before 40 dB) | hearing level after treatment (case 7, left ear, 500 Hz, Oct. 10, 2003, poorest level 18-24 months after treatment, water intake, before 30 dB) | hearing level after treatment (case 7, left ear, 1000 Hz, Oct. 10, 2003, poorest level 18-24 months after treatment, water intake, before 20 dB) | hearing level after treatment (case 7, left ear, 2000 Hz, Oct. 10, 2003, poorest level 18-24 months after treatment, water intake, before 10 dB)
13.75 dB: hearing level after treatment, average (500-4000 Hz) (case 1, right ear, Aug. 29, 2003, water intake 2 lit./day, before 35 dB) | hearing improved as compared with before the treatment (four-frequency PTA) (case 7, left ear, water intake)
45 dB: hearing level (250 Hz, Jul. 2003, water intake 1.5 lit./day) | hearing level (500 Hz, Jul. 2003, water intake 1.5 lit./day) | hearing level (1000 Hz, Sep. 2003, water intake 1.5 lit./day) | hearing level (2000 Hz, Jul. 2003, water intake 1.5 lit./day) | hearing level after treatment (case 7, left ear, 8000 Hz, Oct. 10, 2003, poorest level 18-24 months after treatment, water intake, before 40 dB)
1.25 dB: hearing improved as compared with before the treatment (four-frequency PTA) (case 6, right ear, water intake)
16.25 dB: hearing improved as compared with before the treatment (four-frequency PTA) (case 3, left ear, water intake)
82.5 dB: hearing level after treatment, average (500-4000 Hz) (case 6, right ear, Apr. 11, 2002, poorest level 18-24 months after treatment, water intake, before 83.75 dB)
8.75 dB: hearing level after treatment, average (500-4000 Hz) (case 7, left ear, Oct. 10, 2003, poorest level 18-24 months after treatment, water intake, before 22.5 dB)
20 dB: hearing level after treatment (case 3, left ear, 250 Hz, Jun. 7, 2002, poorest level 18-24 months after treatment, water intake, before 25 dB) | hearing level (250 Hz, Nov. 2003, water intake 1.5 lit./day) | hearing level (500 Hz, Jan. 2004, water intake 1.5 lit./day) | hearing level (500 Hz, Nov. 2003, water intake 1.5 lit./day) | hearing level (2000 Hz, Aug. 2003, water intake 1.5 lit./day) | hearing level (2000 Hz, Dec. 2003, water intake 1.5 lit./day) | hearing level (2000 Hz, Jan. 2004, water intake 1.5 lit./day) | hearing level (2000 Hz, Nov. 2003, water intake 1.5 lit./day) | hearing level (2000 Hz, Oct. 2003, water intake 1.5 lit./day) | hearing level after treatment (case 7, left ear, 4000 Hz, Oct. 10, 2003, poorest level 18-24 months after treatment, water intake, before 30 dB)
10 dB: hearing level after treatment (case 1, right ear, 4000 Hz, Aug. 29, 2003, water intake 2 lit./day, before 10 dB)
15.0 dB: hearing improved as compared with before the treatment (four-frequency PTA) (case 8, right ear, water intake)
41.25 dB: hearing level, average (500-4000 Hz) (Sep. 2003, water intake 1.5 lit./day)
65 dB: hearing level (8000 Hz, Jan. 2004, water intake 1.5 lit./day) | hearing level (8000 Hz, Nov. 2003, water intake 1.5 lit./day) | hearing level after treatment (case 6, right ear, 125 Hz, Apr. 11, 2002, poorest level 18-24 months after treatment, water intake)
23.75 dB: hearing level, average (500-4000 Hz) (Nov. 2003, water intake 1.5 lit./day)
35.0 dB: hearing level, average (500-4000 Hz) (Jun. 2003, water intake 1.5 lit./day from Jun. 20, 2003)
improved: category of change of hearing, AAO-HNS (1995) criteria (case 3, water intake) | category of change of hearing, AAO-HNS (1995) criteria (case 7, water intake) | category of change of hearing, AAO-HNS (1995) criteria (case 8, water intake)
35 dB: hearing level (250 Hz, Jun. 2003, water intake 1.5 lit./day from Jun. 20, 2003) | hearing level (4000 Hz, Nov. 2003, water intake 1.5 lit./day) | hearing level after treatment (case 8, right ear, 500 Hz, Sep. 19, 2003, poorest level 18-24 months after treatment, water intake, before 60 dB)
75 dB: hearing level (8000 Hz, Aug. 2003, water intake 1.5 lit./day) | hearing level (8000 Hz, Jun. 2003, water intake 1.5 lit./day from Jun. 20, 2003) | hearing level after treatment (case 6, right ear, 2000 Hz, Apr. 11, 2002, poorest level 18-24 months after treatment, water intake, before 75 dB)
0 dB: hearing level after treatment (case 1, right ear, 125 Hz, Aug. 29, 2003, water intake 2 lit./day, before 45 dB)
unchanged: category of change of hearing, AAO-HNS (1995) criteria (case 6, water intake)
80 dB: hearing level (8000 Hz, Oct. 2003, water intake 1.5 lit./day) | hearing level (8000 Hz, Sep. 2003, water intake 1.5 lit./day) | hearing level after treatment (case 6, right ear, 250 Hz, Apr. 11, 2002, poorest level 18-24 months after treatment, water intake, before 85 dB) | hearing level after treatment (case 6, right ear, 500 Hz, Apr. 11, 2002, poorest level 18-24 months after treatment, water intake, before 85 dB) | hearing level after treatment (case 8, right ear, 8000 Hz, Sep. 19, 2003, poorest level 18-24 months after treatment, water intake, before 85 dB)
50 dB: hearing level (125 Hz, Jul. 2003, water intake 1.5 lit./day) | hearing level (1000 Hz, Jul. 2003, water intake 1.5 lit./day) | hearing level (1000 Hz, Jun. 2003, water intake 1.5 lit./day from Jun. 20, 2003)
30 dB: hearing level (125 Hz, Jun. 2003, water intake 1.5 lit./day from Jun. 20, 2003) | hearing level (125 Hz, Oct. 2003, water intake 1.5 lit./day) | hearing level (125 Hz, Sep. 2003, water intake 1.5 lit./day) | hearing level (250 Hz, Oct. 2003, water intake 1.5 lit./day) | hearing level (1000 Hz, Aug. 2003, water intake 1.5 lit./day) | hearing level (1000 Hz, Nov. 2003, water intake 1.5 lit./day) | hearing level (4000 Hz, Aug. 2003, water intake 1.5 lit./day) | hearing level (4000 Hz, Dec. 2003, water intake 1.5 lit./day) | hearing level (4000 Hz, Oct. 2003, water intake 1.5 lit./day)
50.0 dB: hearing level, average (500-4000 Hz) (Jul. 2003, water intake 1.5 lit./day)
7.5 dB: hearing level after treatment, average (500-4000 Hz) (case 3, left ear, Jun. 7, 2002, poorest level 18-24 months after treatment, water intake, before 23.75 dB)
25 dB: hearing level after treatment (case 1, right ear, 8000 Hz, Aug. 29, 2003, water intake 2 lit./day, before 15 dB) | hearing level after treatment (case 3, left ear, 125 Hz, Jun. 7, 2002, poorest level 18-24 months after treatment, water intake, before 40 dB) | hearing level (125 Hz, Aug. 2003, water intake 1.5 lit./day) | hearing level (125 Hz, Dec. 2003, water intake 1.5 lit./day) | hearing level (125 Hz, Jan. 2004, water intake 1.5 lit./day) | hearing level (125 Hz, Nov. 2003, water intake 1.5 lit./day) | hearing level (250 Hz, Aug. 2003, water intake 1.5 lit./day) | hearing level (250 Hz, Dec. 2003, water intake 1.5 lit./day) | hearing level (250 Hz, Jan. 2004, water intake 1.5 lit./day) | hearing level (500 Hz, Aug. 2003, water intake 1.5 lit./day) | hearing level (500 Hz, Oct. 2003, water intake 1.5 lit./day) | hearing level (1000 Hz, Dec. 2003, water intake 1.5 lit./day) | hearing level (1000 Hz, Jan. 2004, water intake 1.5 lit./day) | hearing level (1000 Hz, Oct. 2003, water intake 1.5 lit./day) | hearing level (2000 Hz, Jun. 2003, water intake 1.5 lit./day from Jun. 20, 2003) | hearing level (4000 Hz, Jan. 2004, water intake 1.5 lit./day) | hearing level (4000 Hz, Jun. 2003, water intake 1.5 lit./day from Jun. 20, 2003)
43.75 dB: hearing level after treatment, average (500-4000 Hz) (case 8, right ear, Sep. 19, 2003, poorest level 18-24 months after treatment, water intake, before 58.75 dB)
15 dB: hearing level after treatment (case 1, right ear, 500 Hz, Aug. 29, 2003, water intake 2 lit./day, before 45 dB) | hearing level after treatment (case 1, right ear, 1000 Hz, Aug. 29, 2003, water intake 2 lit./day, before 50 dB) | hearing level after treatment (case 1, right ear, 2000 Hz, Aug. 29, 2003, water intake 2 lit./day, before 35 dB) | hearing level after treatment (case 3, left ear, 500 Hz, Jun. 7, 2002, poorest level 18-24 months after treatment, water intake, before 25 dB) | hearing level after treatment (case 3, left ear, 8000 Hz, Jun. 7, 2002, poorest level 18-24 months after treatment, water intake, before 80 dB) | hearing level (500 Hz, Dec. 2003, water intake 1.5 lit./day)
85 dB: hearing level (8000 Hz, Jul. 2003, water intake 1.5 lit./day) | hearing level after treatment (case 6, right ear, 1000 Hz, Apr. 11, 2002, poorest level 18-24 months after treatment, water intake, before 85 dB)
90 dB: hearing level after treatment (case 6, right ear, 4000 Hz, Apr. 11, 2002, poorest level 18-24 months after treatment, water intake, before 90 dB) | hearing level after treatment (case 6, right ear, 8000 Hz, Apr. 11, 2002, poorest level 18-24 months after treatment, water intake, before 95 dB)
25.0 dB: hearing level, average (500-4000 Hz) (Oct. 2003, water intake 1.5 lit./day)
22.5 dB: hearing level, average (500-4000 Hz) (Dec. 2003, water intake 1.5 lit./day) | hearing level, average (500-4000 Hz) (Jan. 2004, water intake 1.5 lit./day)
